# Measurements as given in BindingDB's records for doi:10.1016/j.bmcl.2011.06.080 (Johnson & Johnson Pharmaceutical Research and Development, 2011).
# Experiment: Antagonist activity at CCR2 in human THP1 cells assessed as inhibition of MCP1-induced chemotaxis after 3 hrs
row,SMILES,IC50 [nM]
1,O=C(CNC(=O)c1cccc(C(F)(F)F)c1)NC1CN([C@H]2CC[C@H](c3ccc(N4CCCC4)cc3)CC2)C1,240
2,COc1cc([C@H]2CC[C@H](N3CC(NC(=O)CNC(=O)c4cccc(C(F)(F)F)c4)C3)CC2)ccn1,170
3,O=C(CNC(=O)c1cccc(C(F)(F)F)c1)NC1CN([C@H]2CC[C@](O)(c3ccc4c(c3)OCC4)CC2)C1,52
4,O=C(CNC(=O)c1cccc(C(F)(F)F)c1)NC1CN([C@H]2CC[C@H](c3ccc(C(=O)O)cc3)CC2)C1,1300
5,COc1ccc([C@]2(O)CC[C@@H](N3CC(NC(=O)CNC(=O)c4cccc(C(F)(F)F)c4)C3)CC2)cc1,67
6,N[C@]1(c2ccccc2)CC[C@H](N2CC(NC(=O)CNC(=O)c3cccc(C(F)(F)F)c3)C2)CC1,160
7,O=C(CNC(=O)c1cccc(C(F)(F)F)c1)NC1CN([C@H]2CC[C@H](c3ccncc3O)CC2)C1,57
8,O=C(CNC(=O)c1cccc(C(F)(F)F)c1)NC1CN([C@H]2CC[C@H](c3cccnc3)CC2)C1,52
9,O=C(CNC(=O)c1cccc(C(F)(F)F)c1)NC1CN([C@H]2CC[C@H](c3ccc(O)cc3)CC2)C1,42

# Now those with a lower IC50, led by results:
row,IC50 [nM],SMILES
1,15,O=C(CNC(=O)c1cccc(C(F)(F)F)c1)NC1CN([C@H]2CC[C@@H](c3ccc4c(c3)OCO4)CC2)C1
2,21,O=C(CNC(=O)c1cccc(C(F)(F)F)c1)NC1CN([C@H]2CC[C@H](c3ccc4nc[nH]c4c3)CC2)C1
3,11,COc1ccc([C@H]2CC[C@H](N3CC(NC(=O)CNC(=O)c4cccc(C(F)(F)F)c4)C3)CC2)cn1
4,14,O=C(CNC(=O)c1cccc(C(F)(F)F)c1)NC1CN([C@H]2CC[C@H](c3ccc(O)cn3)CC2)C1
5,27,O=C(CNC(=O)c1cccc(C(F)(F)F)c1)NC1CN([C@H]2CC[C@](O)(c3ccc4c(c3)OCO4)CC2)C1
6,25,COc1ccc([C@H]2CC[C@H](N3CC(NC(=O)CNC(=O)c4cccc(C(F)(F)F)c4)C3)CC2)cc1
7,28,COc1cnccc1[C@H]1CC[C@H](N2CC(NC(=O)CNC(=O)c3cccc(C(F)(F)F)c3)C2)CC1
